This test deals with multidrug-resistant (MDR) strain of K. pneumoniae, clinical isolate. The test can be described thus: microbe, parasite or virus in culture. As to conditions: MDR K. pneumoniae clinical isolate. It counts as cell-based, Klebsiella pneumoniae. Here is the method:
A multidrug-resistant (MDR) strain of K. pneumoniae was identified and isolated from a tertiary-level hospital in Medellin, Colombia, using the VITEK-2 system (bioMérieux, Marcy-l’Étoile, France). The MDR strain was evaluated against several antibiotics at concentrations of 1.56–100 μM. […] In contrast, the strain was susceptible to doxycycline (Supplementary Figure S7g) and chloramphenicol (Supplementary Figure S7h), with MICs of 50 μM and 100 µM, respectively (Table 3). […] All of P. verdolaga’s AMPs were evaluated against the clinical isolate at concentrations of 1.56–200 µM (Supplementary Figure S8). […] A growth inhibition kinetic assay was conducted. […] All of P. verdolaga’s peptides at 100 μM induced morphological changes in the MDR K. pneumoniae, indicating membrane interactions, even though no significant inhibition was observed (Supplementary Figure S9).
The evaluation of the antimicrobial activity of the peptides was conducted using the CLSI’s broth microdilution method for bacterial susceptibility testing. For the screening phase, peptides were evaluated at a single 30 μM concentration, in triplicate and in three independent assays, against the E. coli ATCC® 8739, E. coli ATCC® 25922, S. aureus ATCC® 6538, or S. aureus ATCC® 29213 reference USP and CLSI strains. For the determination of MIC, MBC, or IC50, peptides or antibiotics were evaluated in concentrations between 1.56–200 µM. These evaluations were conducted in triplicate and in three independent assays, against the E. coli ATCC® 25922, S. aureus ATCC® 29213, E. faecalis ATCC® 49532, P. aeruginosa ATCC® 9027, and K. pneumoniae ATCC® BAA-1705, or the clinically isolated MDR strain. In detail, 1 mL of a glycerol stock solution of the ATCC® or clinically isolated bacterial strain was added to 9 mL of Mueller-Hinton Broth and incubated for 18 h, 180 rpm and 37 °C (Incubator 1000, Heidolph Instruments, Schwabach, Germany). After the incubation, 1 mL of the previous solution was transferred to a new recipient containing 9 mL of fresh Mueller-Hinton broth and incubated for 4 h, 180 rpm and 37 °C (Incubator 1000, Heidolph Instruments, Schwabach, Germany). During the second incubation, the peptides or the antibiotics were dissolved in PBS pH 7.20 in concentrations between 19.53–2500 µM (MC5 Micro Balance, Sartorius AG, Göttingen, Germany). An amount of 10 µL of either peptide or antibiotic was dispensed in triplicate in 96-well flat bottom culture plates, along with 10 µL of PBS (Negative activity control), BTM-P1 (Positive activity control), or 10 µL of Mueller-Hinton broth (Blank); then, 110 µL of Mueller-Hinton broth was poured in all wells. Following this, the bacteria were suspended in Mueller-Hinton broth up to a concentration of approximately 1.50 × 10^8 CFU/mL, as measured by optical density at 600 nm between 0.06 to 0.11 (0.5 McFarland standard), in a Multiskan SkyHigh spectrophotometer (ThermoFisher Scientific, Waltham, MA, USA). Amounts of 5 µL of the 1.50 × 10^8 CFU/mL suspension were added to each well (except for the blank) for a final well concentration of approximately 6 × 10^6 CFU/mL. The plate was incubated for 24 h at 37 °C (BE 500, Memmert GmbH, Büchenbach, Germany) and optical density was measured at 600 nm in a Multiskan SkyHigh spectrophotometer (ThermoFisher Scientific, Waltham, MI, USA). Following the measurement of optical density, plates were visually inspected to determine the MIC. Subsequently, 100 µL of the concentration associated to the MIC and 100 µL of the next higher concentration were added to Petri dishes containing Mueller-Hinton Agar. The dishes were then incubated for 24 h at 37 °C (BE 500, Memmert GmbH, Büchenbach, Germany). After incubation, the Petri dishes were visually inspected, and the MBC was determined in the absence of growth. IC50 values were interpolated from regressions with correlation values above 0.70. […]

The IC50 is the midpoint of a concentration-inhibition curve.

Ends that are not written are not given here.

Take WKKIKKFF-NH2 [PvAMP66]: the “MIC” value stood at 3.51 µg/mL. Also, the IC50 (95% confidence interval in parentheses, read-out: IC50) is 15.8 µM. Also, for the setting “peptides 1.56–200 µM, antibiotics 1.56–100 µM, 24 h 37 °C”, the “MIC” value is 25.00 µM.

Source of the values: publication PMC10812672, “Short Antimicrobial Peptide Derived from the Venom Gland Transcriptome of Pamphobeteus verdolaga Increases Gentamicin Susceptibility of Multidrug-Resistant Klebsiella pneumoniae” (Antibiotics, 2023).
